For one molecule, IC50 results are on record in patent publication US9562031B1, “Phenethyldihydrobenzodioxolones and methods of use” (Sequoia Sciences, Inc., priority 2015, dated 2017).

Holding throughout (assay type): cell-based, human
One assay deals with A498 cells. The assay can be described thus: NCI-60 panel antiproliferation, A498. To be noted: Homo sapiens, NCI 60-cell panel. As to the method:
(§1) Bifidenone and Compound 37 were tested for antiproliferation activity against the NCI-60 panel of cancer cell lines. COMPARE analysis was then conducted to compare the activity “fingerprint” of bifidenone to those of known classes of compounds (Zhou, B.-N., Hoch, J. M., Johnson, R. K., Mattern, M. R., Eng, W.-K., Ma, J., Hecht, S. M., Newman, D. J., Kingston, D. G. I., 2000. Use of COMPARE Analysis to Discover New Natural Product Drugs: Isolation of Camptothecin and 9-Methoxycamptothecin from a New Source. Journal of Natural Products 63, 1273-1276.).

The subject of another assay is HL-60 cells. The assay can be described thus: NCI-60 panel antiproliferation, HL-60. To be noted: Homo sapiens, NCI 60-cell panel. As for the experimental part: as §1
Another assay concerns MCF-7 cells. The assay is described as follows: NCI-60 panel antiproliferation, MCF-7. To be noted: Homo sapiens, MCF7, NCI 60-cell panel. As for the experimental part:
as §1

A further assay relates to PC-3 cells. The assay can be described thus: NCI-60 panel antiproliferation, PC-3. To be noted: Homo sapiens, NCI 60-cell panel. As to the method:
as §1

The next assay has as its system T-47D cells. The assay can be described thus: NCI-60 panel antiproliferation, T-47D. Particulars: Homo sapiens, T47D, NCI 60-cell panel. As for the experimental part: as §1
The subject of the next assay is TK-10 cells. The assay can be described thus: NCI-60 panel antiproliferation, TK-10. To be noted: Homo sapiens, NCI 60-cell panel. As to the method: as §1
In a further assay the test system is UACC-62 cells. The assay can be described thus: NCI-60 panel antiproliferation, UACC-62. To be noted: Homo sapiens, NCI 60-cell panel. As to the method:
as §1

The test system of another assay is UO-31 cells. The assay can be described thus: NCI-60 panel antiproliferation, UO-31. Particulars: Homo sapiens, NCI 60-cell panel. As for the experimental part: as §1

As to `C=CC[C@H]1C[C@]2([C@@H](C)Cc3ccc(OC)c(F)c3)OCOC2=CC1=O` [Compound 37, (6S,7aR)-6-allyl-7a-((S)-1-(3-fluoro-4-methoxyphenyl)propan-2-yl)-7,7a-dihydrobenzo[d][1,3]dioxol-5(6H)-one], the IC50 with A498 cells is 58 nM; with HL-60 cells, 36 nM; in the assay with MCF-7 cells, 63 nM; with PC-3 cells, 70 nM; with T-47D cells it was over 10000 nM; in the assay on TK-10 cells, 107 nM. The IC50 is 35 nM in the assay on UACC-62 cells and 65 nM in the assay on UO-31 cells.
